Measured values reported in PMC5795001, “The activity of the C4-dicarboxylic acid chemoreceptor of Pseudomonas aeruginosa is controlled by chemoattractants and antagonists” (Scientific Reports, 2018).

What was measured:
[1] = target: T1, PA2652-LBD (Pseudomonas aeruginosa, UniProt Q9I0I6); assay: biochemical; format: binding, Pseudomonas aeruginosa PAO1
T1 construct: The DNA fragment encoding the LBD of PA2652 (Lys^34–Thr^205) was amplified; His-tag (vector-encoded by pET28b(+) via NdeI site); made in house; host or cells: Escherichia coli BL21 (DE3)
Experimental: To unambiguously determine ligand binding, we conducted Isothermal Titration Calorimetry (ITC)[40] binding studies with the purified protein.
Experiments were conducted on a VP-microcalorimeter (Microcal, Amherst, MA, USA) at 20 °C. PA2652-LBD was dialyzed overnight against TNG buffer, adjusted to a concentration of 20–35 μM and placed into the sample cell of the instrument. The protein was titrated by the injection of 9.6–14.4 μl aliquots of 1–20 mM ligand solutions that were prepared in TNG buffer (20 mM Tris/HCl, 150 mM NaCl, 10% (v/v) glycerol, pH 6.8) immediately before use. The mean enthalpies measured from the injection of ligands into buffer were subtracted from raw titration data prior to data analysis with the MicroCal version of ORIGIN. Data were fitted with the “One binding site model”.

[2] = target: T1, PA2652-LBD; format: binding, Pseudomonas aeruginosa PAO1; conditions: DSF screening as described in text; 2 °C threshold for significant hits
Text: To identify ligands that may bind to the LBD of PA2652, we conducted Differential Scanning Fluorimetry (DSF) based high throughput ligand screening assays as described previously[37],[38]. DSF analyses permit the determination of melting temperature (Tm) values, which corresponds to the temperature at which half the protein is in its native conformation whereas the remaining half has undergone thermal unfolding. Since ligand binding typically enhances the thermal stability of proteins, increases in the Tm in the presence of ligands may be indicative of specific binding. We screened 450 different compounds available in five different ligand arrays from Biolog (Supplementary Fig. S3). The screened collection included different carbon and nitrogen sources, phosphorous and sulfurous compounds as well as different nutrient supplements.
Thermal shift assays were performed on a MyIQ2 Real-Time PCR instrument (BioRad). Ligands from the different compound arrays (Biolog, Hayward, CA, USA; see Supplementary Fig. S3) were dissolved in 50 μl of MilliQ water, which, according to the manufacturer, corresponds to a concentration of 10–20 mM. Screening was performed using 96 wells plates. Each well contained 20 μM of protein dialyzed into TNG buffer (20 mM Tris/HCl, 150 mM NaCl, 10% (v/v) glycerol, pH 6.7), 2.5 μl of the resuspended compounds and SYPRO Orange (Life Technologies) at 5× concentration. In a single well (ligand free protein) the compound was substituted by water. Samples were heated from 23 °C to 85 °C at a scan rate of 1 °C/min. The protein unfolding curves were obtained by following the changes in SYPRO Orange fluorescence. Melting temperatures were determined using the first derivative values from the raw fluorescence data.

[3] = tested on: Pseudomonas aeruginosa PAO1; assay: Quantitative capillary chemotaxis assay, wild type; format: cell-based
Experimental: Secondly, we assessed the capacity of the ligands identified to induce chemotaxis. To this end, we carried out quantitative capillary chemotaxis assays using the wt strain and PA2652 ligands at concentrations ranging from 10 µM to 100 mM.
Overnight cultures of P. aeruginosa strains were diluted to an OD660 of 0.05 in MS medium (30 mM Na2HPO4, 20 mM KH2PO4, 25 mM NH4NO3, 1 mM MgSO4) supplemented with 6 mg l^−1 Fe-citrate, trace elements[81] and 15 mM glucose as carbon source, and grown at 37 °C with orbital shaking (200 rpm). At an OD660 of 0.4 ([…]) cultures were centrifuged at 1,700 × g for 5 min and the resulting pellet was washed twice with chemotaxis buffer (50 mM potassium phosphate, […], 0.05% (v/v) glycerol, pH 7.0). Subsequently, the cells were resuspended in the same buffer, adjusted to an OD660 of 0.1 and 230 µl aliquots of the bacterial cultures were placed into 96-well plates. For the quantitative assays, one-microliter capillary tubes (Microcaps, Drummond Scientific, Ref. P1424) were heat-sealed at one end and filled with either the chemotaxis buffer (negative control) or chemotaxis buffer containing the chemoeffectors to test. The capillaries were immersed into the bacterial suspensions at its open end. After 30 min at room temperature, capillaries were removed from the bacterial suspensions, rinsed with sterile water and the content expelled into 1 ml of M9 medium salts. Serial dilutions were plated onto M9 minimal medium (containing the appropriate antibiotics) supplemented with 15 mM glucose as carbon source. The number of colony forming units was determined after overnight incubation. In all cases, data were corrected with the number of cells that swam into buffer containing capillaries.

[4] = target: T1, PA2652-LBD; assay: Sedimentation velocity analytical ultracentrifugation; set-up: species or system Pseudomonas aeruginosa PAO1; conditions: 1 mM L-malic acid, protein 5-20 µM, 7 °C, PIPES buffer
Experimental: To address this issue, PA2652-LBD was analysed by sedimentation velocity analytical ultracentrifugation (AUC). Initial experiments were conducted using concentrations of ligand-free protein ranging from 5 to 20 µM. […] The molecular weight extracted from the sedimentation coefficient and the shape was of 41 kDa. Considering that the sequence-derived mass of the PA2652-LBD monomer is 21.5 kDa, the observed species is clearly a protein dimer. Since no shift to higher sedimentation coefficients was measured with increasing protein concentrations (data not shown), the dimer species can be considered stable over the protein concentration range analysed. The above experiments were also performed in the presence of saturating concentrations of L-malic acid.
Experiments were performed on a Beckman Coulter Optima XL-A analytical ultracentrifuge (Beckman-Coulter, Palo Alto, CA, USA) equipped with UV-visible absorbance detection system, using an An50Ti 8-hole rotor and 12 mm path-length charcoal-filled epon double-sector centrepieces. […] Light at a wavelength of 234 nm was recorded in the absorbance optics mode. […] Buffer density (ρ = 1.0015 g/mL) and viscosity (η = 0.01449 Poise) at 7 °C were calculated from the buffer composition using SEDNTERP software. […]

T1 sequence (Q9I0I6 34-205): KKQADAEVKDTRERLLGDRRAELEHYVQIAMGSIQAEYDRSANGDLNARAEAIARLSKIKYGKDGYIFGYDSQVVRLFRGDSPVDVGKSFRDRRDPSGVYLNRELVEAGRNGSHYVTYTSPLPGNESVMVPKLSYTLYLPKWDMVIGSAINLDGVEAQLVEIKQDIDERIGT

For `O=C(O)C[C@H](O)C(=O)O` [L-malic acid], the Kd [1] was 23 ± 1 µM, the “TΔS (entropy change of binding)” value ([1]; ITC) was 2.1 ± 1 kcal/mol and the “Binding in ITC” value ([1]; YES/NO) was “YES”. The Tm increases [2] was “more than 2 °C”, the “Role of PA2652 ligand (chemoattractant or antagonist)” value ([3]; authors' classification from chemotaxis results) was “chemoattractants” and the Chemotactic response ([3]; wt PAO1, ligands at 10 µM to 100 mM) was “strong chemotaxis responses”. For the same molecule, the “Effect of ligand binding on oligomerization state of PA2652-LBD” value [4] was “does not have any significant effects on the oligomerization state”.
